The results in this text go back to patent publication US4605643A, “Ovine GRF” (The Salk Institute for Biological Studies, priority 1984, dated 1986).

The assay relates to rat pituitary cells. The assay is described as follows: in vitro release of growth hormone from cultured rat pituitary cells (ir GH by radioimmunoassay), side-by-side with hGRF(1-44)-NH2. Format: cell-based. As for the experimental part: To determine the effectiveness of the peptide to promote the release of growth hormone, in vitro assays are carried out using synthetic hGRF(1-44)-NH2 in side-by-side comparison with equimolar concentrations of the extracted and purified oGRF(1-44) of Example II. hGRF thus serves as a GRF Reference Standard having a known effectiveness to promote the release of growth hormone from rat pituitary cells. Cultures are used which include cells of rat pituitary glands removed some four to five days previously. Both cultures of a defined standard medium and cultures which are considered optimal for the secretion of growth hormone are used for the comparative testing, in the general manner described in Brazeau, et al. Regulatory Peptides, 1, 255, 1981. Incubation with the substance to be tested is carried out for 3 to 4 hours, and aliquots of the culture medium are removed and processed to measure their contents in immunoreactive GH(ir GH) by a well-characterized radioimmunoassay.

Where [1] appears, read: equimolar ratios, incubation 3 to 4 hours, ir GH in culture medium by RIA.
The mark [2] stands for this setting: multiple doses factorial design experiments.

For the compound `CC[C@H](C)[C@H](NC(=O)[C@H](C)NC(=O)[C@H](CC(=O)O)NC(=O)[C@H](C)NC(=O)[C@@H](N)Cc1ccc(O)cc1)C(=O)N[C@@H](Cc1ccccc1)C(=O)N[C@H](C(=O)N[C@@H](CC(N)=O)C(=O)N[C@@H](CO)C(=O)N[C@@H](Cc1ccc(O)cc1)C(=O)N[C@@H](CCCNC(=N)N)C(=O)N[C@@H](CCCCN)C(=O)N[C@H](C(=O)N[C@@H](CC(C)C)C(=O)NCC(=O)N[C@@H](CCC(N)=O)C(=O)N[C@@H](CC(C)C)C(=O)N[C@@H](CO)C(=O)N[C@@H](C)C(=O)N[C@@H](CCCNC(=N)N)C(=O)N[C@@H](CCCCN)C(=O)N[C@@H](CC(C)C)C(=O)N[C@@H](CC(C)C)C(=O)N[C@@H](CCC(N)=O)C(=O)N[C@@H](CC(=O)O)C(=O)N[C@H](C(=O)N[C@@H](CCSC)C(=O)N[C@@H](CC(N)=O)C(=O)N[C@@H](CCCNC(=N)N)C(=O)N[C@@H](CCC(N)=O)C(=O)N[C@@H](CCC(N)=O)C(=O)NCC(=O)N[C@@H](CCC(=O)O)C(=O)N[C@@H](CCCNC(=N)N)C(=O)N[C@@H](CC(N)=O)C(=O)N[C@@H](CCC(N)=O)C(=O)N[C@@H](CCC(=O)O)C(=O)N[C@@H](CCC(N)=O)C(=O)NCC(=O)N[C@@H](C)C(=O)N[C@@H](CCCCN)C(=O)N[C@H](C(=O)N[C@@H](CCCNC(=N)N)C(=O)N[C@@H](CC(C)C)C(N)=O)C(C)C)[C@@H](C)CC)[C@@H](C)CC)[C@@H](C)O` [oGRF(1-44)], under setting [1], the “intrinsic biological activity (release of growth hormone) compared with synthetic hGRF(1-44)-NH2” value was “full intrinsic biological activity of the synthetic peptide” and the “potency (release of growth hormone) compared with synthetic hGRF(1-44)-NH2” value is reported as “close to the same potency”. Under setting [2], the “intrinsic activity compared with hGRF(1-44)-NH2” value is reported as “about the same intrinsic activity as hGRF(1-44)-NH2” and the “specific activity relative to hGRF(1-44)-NH2” value is recorded as “about 70 % of hGRF(1-44)-NH2”.
